In the NIST ThermoML archive (doi:10.1016/j.jct.2007.09.002):
Numbers after ± are expanded uncertainties.

Conditions: Liquid; Ebulliometric method (Recirculating still)

Row | Normal boiling temperature [°C] | SMILES
1 | 102.6 ± 0.2 | FC(F)(F)c1ccccc1 [(trifluoromethyl)benzene]
2 | 80 ± 0.2 | c1ccccc1 [benzene]
3 | 78.6 ± 0.2 | CCO [ethanol]
4 | 61.0 ± 0.2 | ClC(Cl)Cl [trichloromethane]
